In patent US20220017501A1, “MICROBIOCIDAL THIAZOLE DERIVATIVES” (SYNGENTA PARTICIPATIONS AG, priority 2018, published 2022):

Legend:
[1] = test system: Blumeria graminis f. sp. tritici (Erysiphe graminis f. sp. tritici); test: Blumeria graminis f. sp. tritici / wheat / leaf disc preventative (powdery mildew on wheat); type: in vivo; details: foliar, wheat leaf segments, compared to untreated control
Procedure: Example B4: Blumeria Graminis f. sp. Tritici (Erysiphe Graminis f. sp. Tritici)/Wheat/Leaf Disc Preventative (Powdery Mildew on Wheat) Wheat leaf segments cv. Kanzler are placed on agar in a multiwell plate (24-well format) and sprayed with the formulated test compound diluted in water. The leaf disks are inoculated by shaking powdery mildew infected plants above the test plates 1 day after application. The inoculated leaf disks are incubated at 20° C. and 60% rh under a light regime of 24 h darkness followed by 12 h light/12 h darkness in a climate chamber and the activity of a compound is assessed as percent disease control compared to untreated when an appropriate level of disease damage appears on untreated check leaf segments (6-8 days after application). […].23.

[2] = test system: Mycosphaerella graminicola (Septoria tritici); test: Mycosphaerella graminicola (Septoria tritici) / liquid culture (Septoria blotch); type: cell-based; details: Zymoseptoria tritici, growth inhibition photometrically 4-5 days after application, read-out: control of Mycosphaerella graminicola
Procedure: (§1) Example B16: Mycosphaerella Graminicola (Septoria Tritici)/Liquid Culture (Septoria Blotch) Conidia of the fungus from cryogenic storage are directly mixed into nutrient broth (PDB potato dextrose broth). After placing a (DMSO) solution of test compound into a microtiter plate (96-well format), the nutrient broth containing the fungal spores is added. The test plates are incubated at 24° C. and the inhibition of growth is determined photometrically 4-5 days after application. […] […].23.

[3] = test system: Magnaporthe grisea (Pyricularia oryzae); test: whole plant or invertebrate; type: in vivo; details: foliar, read-out: control of Magnaporthe grisea
Pyrenophora teres = Pyrenophora teres / barley / leaf disc preventative (net blotch); type: in vivo; details: foliar, barley leaf segments, compared to untreated control
Procedure: Example B14: Pyrenophora Teres/Barley/Leaf Disc Preventative (Net Blotch) Barley leaf segments cv. Hasso are placed on agar in a multiwell plate (24-well format) and sprayed with the formulated test compound diluted in water. The leaf […] inoculated with a spore suspension of the fungus 2 days after application. The inoculated leaf segments are incubated at 20° C. and 65% rh under a light regime of 12 h light/12 h darkness in a climate cabinet and the activity of a compound is assessed as disease control compared to untreated when an appropriate level of disease damage appears in untreated check leaf segments (5-7 days after application). […] […].23.

[4] = test system: Monographella nivalis (Microdochium nivale); test: Monographella nivalis (Microdochium nivale) / liquid culture (foot rot cereals); type: cell-based; details: growth inhibition photometrically 4-5 days after application, read-out: control of Monographella nivalis
Procedure: as §1, with “B7: Monographella Nivalis (Microdochium Nivale)/Liquid” for “B16: Mycosphaerella Graminicola (Septoria Tritici)/Liquid”, “(Foot Rot Cereals)” for “(Septoria Blotch)”

[5] = test system: Mycosphaerella arachidis (Cercospora arachidicola); test: Mycosphaerella arachidis (Cercospora arachidicola) / liquid culture (early leaf spot); type: cell-based; details: growth inhibition photometrically 4-5 days after application, read-out: control of Mycosphaerella arachidis
Procedure: as §1, with “B8:” for “B16:”, “Arachidis (Cercospora Arachidicola)/Liquid” for “Graminicola (Septoria Tritici)/Liquid”, “(Early Leaf Spot)” for “(Septoria Blotch)”

[6] = test system: Glomerella lagenarium (Colletotrichum lagenarium); test: Glomerella lagenarium (Colletotrichum lagenarium) / liquid culture (anthracnose); type: cell-based; details: Colletotrichum orbiculare, growth inhibition photometrically 3-4 days after application, read-out: control of Glomerella lagenarium
Procedure: Example B3: Glomerella Lagenarium (Colletotrichum Lagenarium)/Liquid Culture (Anthracnose) Conidia of the fungus from cryogenic storage are directly mixed into nutrient broth (PDB potato dextrose broth). After placing a (DMSO) solution of test compound into a microtiter plate (96-well format), the nutrient broth containing the fungal spores is added. The test plates are incubated at 24° C. and the inhibition of growth is measured photometrically 3-4 days after application.

Cc1sc(N(C#N)c2cc(F)nc(F)c2)nc1C(=O)NC1CCC1 [I.a.23, 2-[cyano-(2,6-difluoro-4-pyridyl)amino]-N-cyclobutyl-5-methyl-thiazole-4-carboxamide]
≥ 80%: pest or weed control at 200 ppm [1] | inhibition of growth at 20 ppm [2] | pest or weed control at 200 ppm [3] | pest or weed control at 200 ppm (Pyrenophora teres) | inhibition of growth at 20 ppm [4]

Cc1sc(N(C#N)c2cc(F)cc(F)c2)nc1C(=O)NC1CCC1(C)C (stereo not shown) [I.b.08, 2-(N-cyano-3,5-difluoro-anilino)-N-(2,2-dimethylcyclobutyl)-5-methyl-thiazole-4-carboxamide]
≥ 80%: inhibition of growth at 20 ppm [5] | pest or weed control at 200 ppm [1] | inhibition of growth at 20 ppm [2] | pest or weed control at 200 ppm [3] | inhibition of growth at 20 ppm [6] | inhibition of growth at 20 ppm [4]

CC1(C)CCC1NC(=O)c1nc(N(C#N)c2cc(F)nc(F)c2)sc1NC=O (stereo not shown) [I.b.25, 2-[cyano-(2,6-difluoro-4-pyridyl)amino]-N-(2,2-dimethylcyclobutyl)-5-formamido-thiazole-4-carboxamide]
≥ 80%: inhibition of growth at 20 ppm [2] | inhibition of growth at 20 ppm [6] | inhibition of growth at 20 ppm [4]

Cc1sc(N(C#N)c2cc(F)nc(F)c2)nc1C(=O)NC1CCC12CCCC2 (stereo not shown) [I.c.23, 2-[cyano-(2,6-difluoro-4-pyridyl)amino]-5-methyl-N-spiro[3.4]octan-3-yl-thiazole-4-carboxamide]
≥ 80%: inhibition of growth at 20 ppm [5] | pest or weed control at 200 ppm [1] | inhibition of growth at 20 ppm [2] | pest or weed control at 200 ppm [3] | pest or weed control at 200 ppm (Pyrenophora teres) | inhibition of growth at 20 ppm [6] | inhibition of growth at 20 ppm [4]

Cc1sc(N(C#N)c2cc(F)nc(F)c2)nc1C(=O)NC1CCC12Cc1ccccc1C2 (stereo not shown) [I.d.23, 2-[cyano-(2,6-difluoro-4-pyridyl)amino]-5-methyl-N-spiro[cyclobutane-2,2′-indane]-1-yl-thiazole-4-carboxamide]
≥ 80%: inhibition of growth at 20 ppm [5] | pest or weed control at 200 ppm [1] | inhibition of growth at 20 ppm [2] | pest or weed control at 200 ppm [3] | pest or weed control at 200 ppm (Pyrenophora teres) | inhibition of growth at 20 ppm [6] | inhibition of growth at 20 ppm [4]

Cc1sc(N(C#N)c2cc(F)nc(F)c2)nc1C(=O)NC1CCC12CCC2 (stereo not shown) [I.e.23, 2-[cyano-(2,6-difluoro-4-pyridyl)amino]-5-methyl-N-spiro[3.3]heptan-3-yl-thiazole-4-carboxamide]
≥ 80%: inhibition of growth at 20 ppm [5] | pest or weed control at 200 ppm [1] | inhibition of growth at 20 ppm [2] | pest or weed control at 200 ppm [3] | inhibition of growth at 20 ppm [6] | inhibition of growth at 20 ppm [4]

Cc1sc(N(C#N)c2cc(F)nc(F)c2)nc1C(=O)NCC1(CC2CC2)CC1 [I.f.23, 2-[cyano-(2,6-difluoro-4-pyridyl)amino]-N-[[1-(cyclopropylmethyl)cyclopropyl]methyl]-5-methyl-thiazole-4-carboxamide]
≥ 80%: inhibition of growth at 20 ppm [5] | pest or weed control at 200 ppm [1] | inhibition of growth at 20 ppm [2] | pest or weed control at 200 ppm [3] | inhibition of growth at 20 ppm [6] | inhibition of growth at 20 ppm [4]

Cc1sc(N(C#N)c2cc(F)cc(F)c2)nc1C(=O)NC1(C)CCCC1 [I.g.08, 2-(N-cyano-3,5-difluoro-anilino)-5-methyl-N-(1-methylcyclopentyl)thiazole-4-carboxamide]
≥ 80%: inhibition of growth at 20 ppm [5] | pest or weed control at 200 ppm [1] | pest or weed control at 200 ppm [3] | inhibition of growth at 20 ppm [6] | inhibition of growth at 20 ppm [4]

Cc1sc(N(C#N)c2cc(F)nc(F)c2)nc1C(=O)NC1(C)CCCC1 [I.g.23, 2-[cyano-(2,6-difluoro-4-pyridyl)amino]-5-methyl-N-(1-methylcyclopentyl)thiazole-4-carboxamide]
≥ 80%: inhibition of growth at 20 ppm [5] | pest or weed control at 200 ppm [1] | inhibition of growth at 20 ppm [2] | pest or weed control at 200 ppm [3] | pest or weed control at 200 ppm (Pyrenophora teres) | inhibition of growth at 20 ppm [6] | inhibition of growth at 20 ppm [4]

CCCCCCNC(=O)c1nc(N(C#N)c2cc(F)nc(F)c2)sc1C [I.h.23, 2-[cyano-(2,6-difluoro-4-pyridyl)amino]-N-hexyl-5-methyl-thiazole-4-carboxamide]
≥ 80%: inhibition of growth at 20 ppm [5] | pest or weed control at 200 ppm [1] | inhibition of growth at 20 ppm [2] | pest or weed control at 200 ppm [3] | inhibition of growth at 20 ppm [6] | inhibition of growth at 20 ppm [4]

Cc1sc(N(C#N)c2cc(F)nc(F)c2)nc1C(=O)NCC(C)C [I.i.23, 2-[cyano-(2,6-difluoro-4-pyridyl)amino]-N-isobutyl-5-methyl-thiazole-4-carboxamide]
≥ 80%: pest or weed control at 200 ppm [1] | inhibition of growth at 20 ppm [2] | pest or weed control at 200 ppm [3] | pest or weed control at 200 ppm (Pyrenophora teres) | inhibition of growth at 20 ppm [6] | inhibition of growth at 20 ppm [4]

Cc1sc(N(C#N)c2cc(F)nc(F)c2)nc1C(=O)NC(C)c1ccccc1 (stereo not shown) [I.j.23, 2-[cyano-(2,6-difluoro-4-pyridyl)amino]-5-methyl-N-(1-phenylethyl)thiazole-4-carboxamide]
≥ 80%: pest or weed control at 200 ppm [1] | inhibition of growth at 20 ppm [2] | pest or weed control at 200 ppm [3] | inhibition of growth at 20 ppm [6] | inhibition of growth at 20 ppm [4]

Cc1sc(N(C#N)c2cc(F)nc(F)c2)nc1C(=O)NCC(C)(C)C [I.k.23, 2-[cyano-(2,6-difluoro-4-pyridyl)amino]-N-(2,2-dimethylpropyl)-5-methyl-thiazole-4-carboxamide]
≥ 80%: inhibition of growth at 20 ppm [5] | pest or weed control at 200 ppm [1] | inhibition of growth at 20 ppm [2] | pest or weed control at 200 ppm [3] | pest or weed control at 200 ppm (Pyrenophora teres) | inhibition of growth at 20 ppm [6] | inhibition of growth at 20 ppm [4]

CCCCCNC(=O)c1nc(N(C#N)c2cc(F)nc(F)c2)sc1C [I.l.23, 2-[cyano-(2,6-difluoro-4-pyridyl)amino]-5-methyl-N-pentyl-thiazole-4-carboxamide]
≥ 80%: inhibition of growth at 20 ppm [5] | pest or weed control at 200 ppm [1] | inhibition of growth at 20 ppm [2] | pest or weed control at 200 ppm [3] | inhibition of growth at 20 ppm [4]

Cc1sc(N(C#N)c2cc(F)nc(F)c2)nc1C(=O)NCc1ccccc1 [I.o.23, N-benzyl-2-[cyano-(2,6-difluoro-4-pyridyl)amino]-5-methyl-thiazole-4-carboxamide]
≥ 80%: inhibition of growth at 20 ppm [5] | pest or weed control at 200 ppm [1] | inhibition of growth at 20 ppm [2] | pest or weed control at 200 ppm [3] | inhibition of growth at 20 ppm [6] | inhibition of growth at 20 ppm [4]

CCCCNC(=O)c1nc(N(C#N)c2cc(F)nc(F)c2)sc1C [I.p.23, N-butyl-2-[cyano-(2,6-difluoro-4-pyridyl)amino]-5-methyl-thiazole-4-carboxamide]
≥ 80%: inhibition of growth at 20 ppm [5] | pest or weed control at 200 ppm [1] | inhibition of growth at 20 ppm [2] | pest or weed control at 200 ppm [3] | pest or weed control at 200 ppm (Pyrenophora teres) | inhibition of growth at 20 ppm [6] | inhibition of growth at 20 ppm [4]
